From patent US9555061B2, “Synthesis and analysis of compounds capable of inducing differentiation of human mesenchymal stems cells into hepatocytes” (National University Corporation Torrori University, priority 2011, dated 2017)
Read-outs that look alike come from different tables or passages of the source.

Tests used:
[1] = test system: Wnt/β-catenin signaling pathway; assay: Ability of inhibiting Wnt/β-catenin pathway, luciferase assay (UE7T-13); type: cell-based, human; settings: 8 days after the treatment; pTCF4-CMV-luciferase reporter
From the text: FIG. 3 is a schematic diagram illustrating how to establish a human mesenchymal stem cell stably expressing a β-catenin/TCF4/luciferase reporter gene. FIG. 3 illustrates how to construct pTCF4-CMVpro-GL4.20 plasmid by using a luciferase expression vector. The pTCF4-CMVpro-GL4.20 plasmid contains three TCF4 sequences […] upstream of a CMV promoter to express luciferase. In addition, pCMVpro-GL4.20 plasmid was constructed as a control. The resulting plasmids were each linearized, introduced into UE7T-13 by electroporation, and selected using puromycin (0.25 μg/ml) supplemented in a medium. Puromycin-resistant cells were cloned and used for a luciferase assay.
The cell line having a vector stably expressing luciferase was seeded on a 24-well plate, and was cultured at 37° C. At the next day, the medium was changed to a medium containing IC-2, etc., and the cell line was further cultured at 37° C. After that, at days 1, 4, and 8, a luciferase assay system (Promega) was used and the luciferase activity was read with a fluorescence plate reader (ARVO) at a wavelength of 556 nm.

[2] = test system: UE7T-13 cells; settings: human
[3] = test system: UE7T-13 cells; assay: Proliferation potential (toxicity), MTT assay (UE7T-13); settings: days 2, 4, 8 of treatment
[4] = test system: clinical specimen-derived mesenchymal stem cells; assay: Immunofluorescence staining in clinical specimen-derived mesenchymal stem cells; type: cell-based, human; settings: day 8; PN-3-13 20 μM, IC-2 40 μM
Method: A cover glass that had been sterilized with 100% ethanol was placed on a 12-well plate. Cells were seeded on the cover glass at a cell density of 1.8×10^4 cells/cm^2. This day was designated as day 0. At day 1 corresponding to the next day, the medium was changed to a medium containing HC-2 (at a final concentration of 20 μM), PN-3-13 (at a final concentration of 20 μM), IC-2 (at a final concentration of 40 μM), or 0.1% DMSO. At day 4, the medium was changed in a manner similar to that at day 1. At day 8, the culture medium was removed and the cells were washed twice with PBS. Then, in order to perform immunostaining of albumin, the cells were fixed for 20 min with 4% paraformaldehyde (Nacalai Tesque) containing 8% sucrose (Wako Pure Chemical Industries, Ltd.). For immunostaining of C/EBPα or CYP1A1, the cells were fixed for 20 min with 4% paraformaldehyde. After that, the cells were permeated with 0.2% Triton X-100 (Wako Pure Chemical Industries, Ltd.) for 10 min and were then blocked in 3% BSA (Nacalai Tesque) at room temperature for 30 min without shaking.
After the primary antibody reaction, the cells were washed with 0.1% BSA/PBS. […] The cells were incubated with each antibody, and were kept in a dark condition at room temperature for 1 h to carry out a secondary antibody reaction. Their nuclei were stained with DAPI (Cell Signaling Technology Inc.). […]

[5] = test system: CD90+CD271+ bone marrow-derived mesenchymal stem cells; assay: Urea assay in CD90+CD271+ bone marrow-derived mesenchymal stem cells; type: cell-based, human; settings: hexachlorophene 4 μM, PN-3-13 20 μM, IC-2 40 μM; day 8 plus 96 h ammonium chloride
Method: A urea assay was performed according to the following protocol. CD90^+CD271^+ bone marrow-derived mesenchymal stem cells were seeded on a 24-well plate at a cell density of 1.8×10^4 cells/cm^2. This day was designated as day 0. At day 1 corresponding to the next day, each medium was changed to a medium containing hexachlorophene (at a final concentration of 4 μM), HC-2 (at a final concentration of 20 μM), PN-3-13 (at a final concentration of 20 μM), IC-2 (at a final concentration of 40 μM), or 0.1% DMSO. At day 4, the medium was changed in a manner similar to that at day 1, and the cells were cultured until day 8. At day 8, the medium was removed, and replaced with a medium containing ammonium chloride (Nacalai Tesque) at a final concentration of 5 mM. The cells were further cultured for 96 h. At 96 h after the addition of ammonium chloride, levels of urea in the medium were determined using a QuantiChrom Urea Assay Kit (BioAssay Systems) according to the attached protocol by reading the absorbance at a wavelength of 520 nm with a microplate reader. The levels of urea were calculated based on a standard sample according to the attached calculation method. As a negative control for the urea assay, used were CD90^+CD271^+ bone marrow-derived mesenchymal stem cells that were seeded one day before the day of the immunostaining and were not subjected to the differentiation induction.

[6] = test system: clinical specimen-derived mesenchymal stem cells; assay: RT-PCR of hepatocyte differentiation marker in clinical specimen-derived mesenchymal stem cells; type: cell-based, human; settings: hexachlorophene 4 μM, HC-2 20 μM, PN-3-13 20 μM, IC-2 40 μM
Method: A fresh bone marrow aspirate was collected under informed consent from a patient (a person) with osteoarthritis who underwent replacement arthroplasty at the Department of Orthopedic Surgery, Tottori University Hospital. This aspirate was subjected to density gradient centrifugation using ficoll (Amersham Biosciences) to separate bone marrow mononuclear cells (FIG. 31). These bone marrow mononuclear cells were suspended in 1 ml of Hanks' balanced salt solution (HBSS, Gibco, Life Technologies Corp.) supplemented with a 100-fold diluted APC-labeled anti-CD90 antibody, a 407-fold diluted PE-labeled anti-CD271 antibody, and 2% fetal bovine serum (FBS, Defined, Thermo Fisher Scientific Inc.), and were stained on ice for 30 min. A flow cytometer (MoFlo XDP, Beckman Coulter Inc.) was used to selectively separate mesenchymal stem cells. The resulting cells were cultured in Dulbecco's Modified Eagle's Medium (Low Glucose, Gibco, Life Technologies Corp.) containing 20% FBS, 100 U/ml penicillin, […] streptomycin (Nacalai Tesque), and 20 ng/ml basic fibroblast growth factor (TRANS GENIC INC., Ltd.) on a 35-mm dish under conditions at 37° C. and 5% CO2. The medium was changed every 4 days. After colonies were formed, the cells were detached using a 0.025% trypsin/1 mM EDTA solution (Nacalai Tesque), split on a 100-mm dish, and cultured under conditions at 37° C. and 5% CO2. Then, the cells which were kept 70 to 80% confluent were detached using trypsin treatment. These cells in one dish were divided into four dishes for passage.
Cells were seeded on a 6-well plate at a cell density of 1.8×10^4 cells/cm^2. This day was designated as day 0. At day 1 corresponding to the next day, the medium was changed to a medium containing any one of hexachlorophene (at a final concentration of 4 μM), HC-2 (at a final concentration of 20 μM), PN-3-13 (at a final concentration of 20 μM), IC-2 (at a final concentration of 40 μM), and 0.1% DMSO. […]

[7] = test system: clinical specimen-derived mesenchymal stem cells; assay: PAS staining in clinical specimen-derived mesenchymal stem cells; type: cell-based, human; settings: day 8, PN-3-13 20 μM, IC-2 40 μM
Method: PAS staining was performed according to the following procedure. A cover glass that had been sterilized with 100% ethanol was placed on a 12-well plate. Cells were seeded on the cover glass at a cell density of 1.8×10^4 cells/cm^2. This day was designated as day 0. At day 1 corresponding to the next day, each medium was changed to a medium containing HC-2 (at a final concentration of 20 μM), PN-3-13 (at a final concentration of 20 μM), IC-2 (at a final concentration of 40 μM), or 0.1% DMSO. At day 4, the medium was changed in a manner similar to that at day 1, and the cells were cultured until day 8. At day 8, the cells were washed twice with PBS and were fixed with 4% paraformaldehyde for 30 min. As a negative control, α-amylase (Nacalai Tesque) at a final concentration of 10 mg/ml was added, and the cells were incubated therewith at 37° C. for 1 h to digest their glycogen. Subsequently, the cells were treated with 1% aqueous periodic acid for 5 min. Then, the cells were treated with a Schiff reagent (Nacalai Tesque) for 15 min to stain glycogen. After that, the cells were washed three times with aqueous sulfurous acid and were then washed three times with distilled water. The nuclei were stained with Mayer's Hematoxylin (MUTO PURE CHEMICALS CO., LTD.) for 1 min. […]

[8] = test system: UE7T-13 cells; assay: Periodic acid-Schiff (PAS) staining (UE7T-13); type: cell-based, human
Method: (3-4) Periodic Acid-Schiff (PAS) Staining (UE7T-13) A cover glass (22×22 mm, […]) was sterilized with 70% EtOH and placed in a 6-well plate. Next, cells were seeded on the cover glass and cultured in a medium containing IC-2, etc. At 8, 16, and 24 days after the initiation of the culture, the cells were washed twice with PBS. Then, the cells were treated with 4% paraformaldehyde/PBS for 20 min and fixed onto the cover glass. As a negative control, 10 mg/ml of α-amylase (10 mg/ml; in 0.1 M phosphate buffer solution at pH 6.8) was added, and the cells were incubated therewith at 37° C. for 1 h to digest their glycogen. Subsequently, 1% aqueous periodic acid was used for oxidation treatment for 10 min. After that, the cells were treated with a Schiff reagent for 15 min to stain glycogen. Then, the cells were washed three times with aqueous sulfurous acid and were washed three times with distilled water. After their nuclei were stained with Mayer's hematoxylin, 50% glycerol diluted with PBS was used to mount the cover glass. Finally, the cells were observed under a light microscope. The cells which had been cultured with 0.1% DMSO were used as a control.

[9] = test system: β-catenin/Tcf complex; settings: Drug Discov. Today 2005, 10, 1467-1474; cited from earlier work

With `COc1c(Cl)cc(Cl)c(Cl)c1Cc1c(Cl)c(Cl)cc(Cl)c1OC` [HC-1, bis(2,3,5-trichloro-6-methoxyphenyl)methane] the “concentration that significantly inhibited the Wnt/β-catenin signaling pathway” value [1] was no less than 2 µM and the “concentration with very low cell toxicity toward UE7T-13 cells” value [2] was no more than 8 µM.

With `O=C(N/N=C/c1c(F)c(F)c(F)c(F)c1F)c1ccccc1Oc1ccccc1` [PN-3-13, N′-[(E)-pentafluorophenylmethylidene]-2-phenoxybenzohydrazide] the “concentration with very low cell toxicity toward UE7T-13 cells” value [3] was no more than 10 µM, the “levels of expression of albumin, C/EBPα, and CYP1A1 compared with negative control (0.1% DMSO)” value [4] was “apparently increased” and the “cellular urea synthesis compared with negative control (0.1% DMSO)” value [5] was “apparent increase”. The expression of albumin [6] was “induced”, the “concentration that significantly inhibited the Wnt/β-catenin signaling pathway” value [1] was no less than 9 µM and the “cellular glycogen accumulation compared with negative control (0.1% DMSO)” value [7] was “apparent increase”.

In the case of `O=C1[C@H](Cc2ccc(O)cc2)N2C(=O)CCN(C(=O)NCc3ccccc3)[C@H]2CN1Cc1cccc2ccccc12` [ICG-001], the “intracellular glycogen accumulation compared with negative control (0.1% DMSO)” value [8] is listed as “did not increase” and the “antagonism of transcriptional activation by a β-catenin/Tcf complex” value [9] is listed as “potent antagonist”.
